US20140120232A1, “ACID TASTE/ACID SMELL-REDUCING AGENT” (T. HASEGAWA CO., LTD., priority 2011, published 2014)

Test: Sensory evaluation of Vermont drink containing the agent
Conditions: ten panels
Procedure: Water was added to a mixture of 10 g of apple-cider vinegar (acetic acid: 4.8%), 3 g of honey, 7 g of fructose-glucose liquid sugar mixed with sugar, 0.02 g of citric acid, 0.002 g of trisodium citrate, and 0.1 g of a Vermont flavor (manufactured by T. Hasegawa Co., Ltd.) to give a total amount of 100 mL. To the resulting mixture was added (Z,Z)-4,7-tridecadienal as the acid taste and/or acid smell-reducing agent of the present invention in concentrations shown in the following Table 1 to give Vermont drinks containing the agent.
Sensory evaluation of each drink was carried out by ten panels. […] The piercing aroma characteristic to aldehydes is a characteristic aroma common to every aldehyde and refers to an irritant off-smell giving an image of deteriorated oils and fats, soap, metals, Houttuynia cordata, etc. The judgment of smell was performed by comparing the effects at different concentrations of the acid taste and/or acid smell-reducing agent, and a concentration giving the highest acid taste/acid smell quality was selected. […]

CCCCC/C=C\C/C=C/C=C/C=O [(E,E,Z)-2,4,7-tridecatrienal]
A: number of panels, acid taste/acid smell extreme and cause irritation (0.005 ppt): 10 | B: number of panels, acid taste/acid smell slightly strong and slightly cause irritation (0.005 ppt): 0 | C: number of panels, acid taste/acid smell slightly unpleasant (0.005 ppt): 0 | Flavor judgment: number of panels who judged acid taste/acid smell quality the highest (0.005 ppt): 0 | N: number of panels, irritation of acid reduced to give a mild acid taste (0.005 ppt): 0 | X: number of panels, acid taste reduced but piercing odor characteristic to aldehydes unpleasant (0.005 ppt): 0 | A: number of panels, acid taste/acid smell extreme and cause irritation (0.02 ppt): 10 | B: number of panels, acid taste/acid smell slightly strong and slightly cause irritation (0.02 ppt): 0 | C: number of panels, acid taste/acid smell slightly unpleasant (0.02 ppt): 0 | Flavor judgment: number of panels who judged acid taste/acid smell quality the highest (0.02 ppt): 0 | N: number of panels, irritation of acid reduced to give a mild acid taste (0.02 ppt): 0 | X: number of panels, acid taste reduced but piercing odor characteristic to aldehydes unpleasant (0.02 ppt): 0 | A: number of panels, acid taste/acid smell extreme and cause irritation (0.1 ppt): 10 | B: number of panels, acid taste/acid smell slightly strong and slightly cause irritation (0.1 ppt): 0 | C: number of panels, acid taste/acid smell slightly unpleasant (0.1 ppt): 0 | Flavor judgment: number of panels who judged acid taste/acid smell quality the highest (0.1 ppt): 0 | N: number of panels, irritation of acid reduced to give a mild acid taste (0.1 ppt): 0 | X: number of panels, acid taste reduced but piercing odor characteristic to aldehydes unpleasant (0.1 ppt): 0 | A: number of panels, acid taste/acid smell extreme and cause irritation (0.2 ppt): 8 | B: number of panels, acid taste/acid smell slightly strong and slightly cause irritation (0.2 ppt): 2 | C: number of panels, acid taste/acid smell slightly unpleasant (0.2 ppt): 0 | Flavor judgment: number of panels who judged acid taste/acid smell quality the highest (0.2 ppt): 0 | N: number of panels, irritation of acid reduced to give a mild acid taste (0.2 ppt): 0 | X: number of panels, acid taste reduced but piercing odor characteristic to aldehydes unpleasant (0.2 ppt): 0 | A: number of panels, acid taste/acid smell extreme and cause irritation (0.5 ppt): 7 | B: number of panels, acid taste/acid smell slightly strong and slightly cause irritation (0.5 ppt): 2 | C: number of panels, acid taste/acid smell slightly unpleasant (0.5 ppt): 1 | Flavor judgment: number of panels who judged acid taste/acid smell quality the highest (0.5 ppt): 0 | N: number of panels, irritation of acid reduced to give a mild acid taste (0.5 ppt): 0 | X: number of panels, acid taste reduced but piercing odor characteristic to aldehydes unpleasant (0.5 ppt): 0 | A: number of panels, acid taste/acid smell extreme and cause irritation (1 ppb): 0 | B: number of panels, acid taste/acid smell slightly strong and slightly cause irritation (1 ppb): 0 | C: number of panels, acid taste/acid smell slightly unpleasant (1 ppb): 3 | Flavor judgment: number of panels who judged acid taste/acid smell quality the highest (1 ppb): 0 | N: number of panels, irritation of acid reduced to give a mild acid taste (1 ppb): 4 | X: number of panels, acid taste reduced but piercing odor characteristic to aldehydes unpleasant (1 ppb): 3 | A: number of panels, acid taste/acid smell extreme and cause irritation (1 ppt): 0 | B: number of panels, acid taste/acid smell slightly strong and slightly cause irritation (1 ppt): 5 | C: number of panels, acid taste/acid smell slightly unpleasant (1 ppt): 4 | Flavor judgment: number of panels who judged acid taste/acid smell quality the highest (1 ppt): 0 | N: number of panels, irritation of acid reduced to give a mild acid taste (1 ppt): 1 | X: number of panels, acid taste reduced but piercing odor characteristic to aldehydes unpleasant (1 ppt): 0 | A: number of panels, acid taste/acid smell extreme and cause irritation (5 ppt): 0 | B: number of panels, acid taste/acid smell slightly strong and slightly cause irritation (5 ppt): 2 | C: number of panels, acid taste/acid smell slightly unpleasant (5 ppt): 3 | Flavor judgment: number of panels who judged acid taste/acid smell quality the highest (5 ppt): 3 | N: number of panels, irritation of acid reduced to give a mild acid taste (5 ppt): 5 | X: number of panels, acid taste reduced but piercing odor characteristic to aldehydes unpleasant (5 ppt): 0 | A: number of panels, acid taste/acid smell extreme and cause irritation (10 ppb): 0 | B: number of panels, acid taste/acid smell slightly strong and slightly cause irritation (10 ppb): 0 | C: number of panels, acid taste/acid smell slightly unpleasant (10 ppb): 2 | Flavor judgment: number of panels who judged acid taste/acid smell quality the highest (10 ppb): 0 | N: number of panels, irritation of acid reduced to give a mild acid taste (10 ppb): 2 | X: number of panels, acid taste reduced but piercing odor characteristic to aldehydes unpleasant (10 ppb): 6 | A: number of panels, acid taste/acid smell extreme and cause irritation (20 ppt): 0 | B: number of panels, acid taste/acid smell slightly strong and slightly cause irritation (20 ppt): 0 | C: number of panels, acid taste/acid smell slightly unpleasant (20 ppt): 4 | Flavor judgment: number of panels who judged acid taste/acid smell quality the highest (20 ppt): 4 | N: number of panels, irritation of acid reduced to give a mild acid taste (20 ppt): 6 | X: number of panels, acid taste reduced but piercing odor characteristic to aldehydes unpleasant (20 ppt): 0 | A: number of panels, acid taste/acid smell extreme and cause irritation (50 ppb): 0 | B: number of panels, acid taste/acid smell slightly strong and slightly cause irritation (50 ppb): 0 | C: number of panels, acid taste/acid smell slightly unpleasant (50 ppb): 0 | Flavor judgment: number of panels who judged acid taste/acid smell quality the highest (50 ppb): 0 | N: number of panels, irritation of acid reduced to give a mild acid taste (50 ppb): 2 | X: number of panels, acid taste reduced but piercing odor characteristic to aldehydes unpleasant (50 ppb): 8 | A: number of panels, acid taste/acid smell extreme and cause irritation (100 ppt): 0 | B: number of panels, acid taste/acid smell slightly strong and slightly cause irritation (100 ppt): 0 | C: number of panels, acid taste/acid smell slightly unpleasant (100 ppt): 3 | Flavor judgment: number of panels who judged acid taste/acid smell quality the highest (100 ppt): 3 | N: number of panels, irritation of acid reduced to give a mild acid taste (100 ppt): 7 | X: number of panels, acid taste reduced but piercing odor characteristic to aldehydes unpleasant (100 ppt): 0 | A: number of panels, acid taste/acid smell extreme and cause irritation (500 ppt): 0 | B: number of panels, acid taste/acid smell slightly strong and slightly cause irritation (500 ppt): 0 | C: number of panels, acid taste/acid smell slightly unpleasant (500 ppt): 4 | Flavor judgment: number of panels who judged acid taste/acid smell quality the highest (500 ppt): 0 | N: number of panels, irritation of acid reduced to give a mild acid taste (500 ppt): 4 | X: number of panels, acid taste reduced but piercing odor characteristic to aldehydes unpleasant (500 ppt): 2

CCCCC/C=C/C/C=C/CCC=O [(E,E)-4,7-tridecadienal]
A: number of panels, acid taste/acid smell extreme and cause irritation (0.005 ppt): 10 | B: number of panels, acid taste/acid smell slightly strong and slightly cause irritation (0.005 ppt): 0 | C: number of panels, acid taste/acid smell slightly unpleasant (0.005 ppt): 0 | Flavor judgment: number of panels who judged acid taste/acid smell quality the highest (0.005 ppt): 0 | N: number of panels, irritation of acid reduced to give a mild acid taste (0.005 ppt): 0 | X: number of panels, acid taste reduced but piercing odor characteristic to aldehydes unpleasant (0.005 ppt): 0 | A: number of panels, acid taste/acid smell extreme and cause irritation (0.02 ppt): 10 | B: number of panels, acid taste/acid smell slightly strong and slightly cause irritation (0.02 ppt): 0 | C: number of panels, acid taste/acid smell slightly unpleasant (0.02 ppt): 0 | Flavor judgment: number of panels who judged acid taste/acid smell quality the highest (0.02 ppt): 0 | N: number of panels, irritation of acid reduced to give a mild acid taste (0.02 ppt): 0 | X: number of panels, acid taste reduced but piercing odor characteristic to aldehydes unpleasant (0.02 ppt): 0 | A: number of panels, acid taste/acid smell extreme and cause irritation (0.1 ppt): 10 | B: number of panels, acid taste/acid smell slightly strong and slightly cause irritation (0.1 ppt): 0 | C: number of panels, acid taste/acid smell slightly unpleasant (0.1 ppt): 0 | Flavor judgment: number of panels who judged acid taste/acid smell quality the highest (0.1 ppt): 0 | N: number of panels, irritation of acid reduced to give a mild acid taste (0.1 ppt): 0 | X: number of panels, acid taste reduced but piercing odor characteristic to aldehydes unpleasant (0.1 ppt): 0 | A: number of panels, acid taste/acid smell extreme and cause irritation (0.2 ppt): 8 | B: number of panels, acid taste/acid smell slightly strong and slightly cause irritation (0.2 ppt): 2 | C: number of panels, acid taste/acid smell slightly unpleasant (0.2 ppt): 0 | Flavor judgment: number of panels who judged acid taste/acid smell quality the highest (0.2 ppt): 0 | N: number of panels, irritation of acid reduced to give a mild acid taste (0.2 ppt): 0 | X: number of panels, acid taste reduced but piercing odor characteristic to aldehydes unpleasant (0.2 ppt): 0 | A: number of panels, acid taste/acid smell extreme and cause irritation (0.5 ppt): 6 | B: number of panels, acid taste/acid smell slightly strong and slightly cause irritation (0.5 ppt): 2 | C: number of panels, acid taste/acid smell slightly unpleasant (0.5 ppt): 2 | Flavor judgment: number of panels who judged acid taste/acid smell quality the highest (0.5 ppt): 0 | N: number of panels, irritation of acid reduced to give a mild acid taste (0.5 ppt): 0 | X: number of panels, acid taste reduced but piercing odor characteristic to aldehydes unpleasant (0.5 ppt): 0 | A: number of panels, acid taste/acid smell extreme and cause irritation (1 ppb): 0 | B: number of panels, acid taste/acid smell slightly strong and slightly cause irritation (1 ppb): 0 | C: number of panels, acid taste/acid smell slightly unpleasant (1 ppb): 3 | Flavor judgment: number of panels who judged acid taste/acid smell quality the highest (1 ppb): 0 | N: number of panels, irritation of acid reduced to give a mild acid taste (1 ppb): 4 | X: number of panels, acid taste reduced but piercing odor characteristic to aldehydes unpleasant (1 ppb): 3 | A: number of panels, acid taste/acid smell extreme and cause irritation (1 ppt): 0 | B: number of panels, acid taste/acid smell slightly strong and slightly cause irritation (1 ppt): 4 | C: number of panels, acid taste/acid smell slightly unpleasant (1 ppt): 5 | Flavor judgment: number of panels who judged acid taste/acid smell quality the highest (1 ppt): 0 | N: number of panels, irritation of acid reduced to give a mild acid taste (1 ppt): 1 | X: number of panels, acid taste reduced but piercing odor characteristic to aldehydes unpleasant (1 ppt): 0 | A: number of panels, acid taste/acid smell extreme and cause irritation (5 ppt): 0 | B: number of panels, acid taste/acid smell slightly strong and slightly cause irritation (5 ppt): 1 | C: number of panels, acid taste/acid smell slightly unpleasant (5 ppt): 3 | Flavor judgment: number of panels who judged acid taste/acid smell quality the highest (5 ppt): 4 | N: number of panels, irritation of acid reduced to give a mild acid taste (5 ppt): 6 | X: number of panels, acid taste reduced but piercing odor characteristic to aldehydes unpleasant (5 ppt): 0 | A: number of panels, acid taste/acid smell extreme and cause irritation (10 ppb): 0 | B: number of panels, acid taste/acid smell slightly strong and slightly cause irritation (10 ppb): 0 | C: number of panels, acid taste/acid smell slightly unpleasant (10 ppb): 1 | Flavor judgment: number of panels who judged acid taste/acid smell quality the highest (10 ppb): 0 | N: number of panels, irritation of acid reduced to give a mild acid taste (10 ppb): 3 | X: number of panels, acid taste reduced but piercing odor characteristic to aldehydes unpleasant (10 ppb): 6 | A: number of panels, acid taste/acid smell extreme and cause irritation (20 ppt): 0 | B: number of panels, acid taste/acid smell slightly strong and slightly cause irritation (20 ppt): 0 | C: number of panels, acid taste/acid smell slightly unpleasant (20 ppt): 3 | Flavor judgment: number of panels who judged acid taste/acid smell quality the highest (20 ppt): 3 | N: number of panels, irritation of acid reduced to give a mild acid taste (20 ppt): 7 | X: number of panels, acid taste reduced but piercing odor characteristic to aldehydes unpleasant (20 ppt): 0 | A: number of panels, acid taste/acid smell extreme and cause irritation (50 ppb): 0 | B: number of panels, acid taste/acid smell slightly strong and slightly cause irritation (50 ppb): 0 | C: number of panels, acid taste/acid smell slightly unpleasant (50 ppb): 0 | Flavor judgment: number of panels who judged acid taste/acid smell quality the highest (50 ppb): 0 | N: number of panels, irritation of acid reduced to give a mild acid taste (50 ppb): 3 | X: number of panels, acid taste reduced but piercing odor characteristic to aldehydes unpleasant (50 ppb): 7 | A: number of panels, acid taste/acid smell extreme and cause irritation (100 ppt): 0 | B: number of panels, acid taste/acid smell slightly strong and slightly cause irritation (100 ppt): 0 | C: number of panels, acid taste/acid smell slightly unpleasant (100 ppt): 3 | Flavor judgment: number of panels who judged acid taste/acid smell quality the highest (100 ppt): 3 | N: number of panels, irritation of acid reduced to give a mild acid taste (100 ppt): 7 | X: number of panels, acid taste reduced but piercing odor characteristic to aldehydes unpleasant (100 ppt): 0 | A: number of panels, acid taste/acid smell extreme and cause irritation (500 ppt): 0 | B: number of panels, acid taste/acid smell slightly strong and slightly cause irritation (500 ppt): 2 | C: number of panels, acid taste/acid smell slightly unpleasant (500 ppt): 3 | Flavor judgment: number of panels who judged acid taste/acid smell quality the highest (500 ppt): 0 | N: number of panels, irritation of acid reduced to give a mild acid taste (500 ppt): 3 | X: number of panels, acid taste reduced but piercing odor characteristic to aldehydes unpleasant (500 ppt): 2
